How the values were obtained:
Experiment in all cases: relative viability (nuclei count vs DMSO), 5 days (fraction); higher = more cells survive
Ispinesib + Phenformin = compound: Cc1ccc(C(=O)N(CCCN)[C@@H](c2nc3cc(Cl)ccc3c(=O)n2Cc2ccccc2)C(C)C)cc1 [Ispinesib] + N=C(N)NC(=N)NCCc1ccccc1 [Phenformin] (partner 250 µM)
Summary of the method: (§1)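 One day after seeding in 1536-well plates, lung cancer cell lines were dosed by pin tool. Dosing was either single-drug or a fixed anchor-drug dose plus five library-drug doses (not always all listed) in √10 steps. After 5 days, nuclei were stained in one fix-and-stain step and counted on 4× images, and relative viability is the nuclei count of treated wells over that of vehicle wells, given as the median of duplicate plates.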

Ispinesib + Dasatinib = compound: Cc1ccc(C(=O)N(CCCN)[C@@H](c2nc3cc(Cl)ccc3c(=O)n2Cc2ccccc2)C(C)C)cc1 [Ispinesib] + Cc1nc(Nc2ncc(C(=O)Nc3c(C)cccc3Cl)s2)cc(N2CCN(CCO)CC2)n1 [Dasatinib] (partner 0.075 µM)
Summary of the method: as §1

Ispinesib + Linsitinib = compound: Cc1ccc(C(=O)N(CCCN)[C@@H](c2nc3cc(Cl)ccc3c(=O)n2Cc2ccccc2)C(C)C)cc1 [Ispinesib] + C[C@]1(O)C[C@@H](c2nc(-c3ccc4ccc(-c5ccccc5)nc4c3)c3c(N)nccn32)C1 [Linsitinib] (partner 1 µM)
Summary of the method: as §1

Ispinesib + Navitoclax = compound: Cc1ccc(C(=O)N(CCCN)[C@@H](c2nc3cc(Cl)ccc3c(=O)n2Cc2ccccc2)C(C)C)cc1 [Ispinesib] + CC1(C)CCC(c2ccc(Cl)cc2)=C(CN2CCN(c3ccc(C(=O)NS(=O)(=O)c4ccc(N[C@H](CCN5CCOCC5)CSc5ccccc5)c(S(=O)(=O)C(F)(F)F)c4)cc3)CC2)C1 [Navitoclax] (partner 0.5 µM)
Summary of the method: as §1

Cell Line	relative viability (Ispinesib + Phenformin; first compound 0.001 µM)	relative viability (Ispinesib + Phenformin; first compound 0.003162 µM)	relative viability (Ispinesib + Phenformin; first compound 0.01 µM)	relative viability (Ispinesib + Phenformin; first compound 0.03162 µM)	relative viability (Ispinesib + Phenformin; first compound 0.1 µM)	relative viability (Ispinesib + Dasatinib; first compound 0.001 µM)	relative viability (Ispinesib + Dasatinib; first compound 0.003162 µM)	relative viability (Ispinesib + Dasatinib; first compound 0.01 µM)	relative viability (Ispinesib + Dasatinib; first compound 0.03162 µM)	relative viability (Ispinesib + Dasatinib; first compound 0.1 µM)	relative viability (Ispinesib + Linsitinib; first compound 0.001 µM)	relative viability (Ispinesib + Linsitinib; first compound 0.003162 µM)	relative viability (Ispinesib + Linsitinib; first compound 0.01 µM)	relative viability (Ispinesib + Linsitinib; first compound 0.03162 µM)	relative viability (Ispinesib + Linsitinib; first compound 0.1 µM)	relative viability (Ispinesib + Navitoclax; first compound 0.001 µM)	relative viability (Ispinesib + Navitoclax; first compound 0.003162 µM)	relative viability (Ispinesib + Navitoclax; first compound 0.01 µM)	relative viability (Ispinesib + Navitoclax; first compound 0.03162 µM)	relative viability (Ispinesib + Navitoclax; first compound 0.1 µM)
NCI-H661	0.288	0.299	0.224	0.195	0.216	0.999	0.982	0.921	0.353	0.251	0.535	0.528	0.462	0.494	0.605	–	–	–	–	–
CAL-12T	0.515	0.57	0.592	0.139	0.172	0.376	0.482	0.338	0.128	0.188	0.98	0.784	0.785	0.778	0.193	1.28	1.4	1.47	0.537	0.177
HARA	0.492	0.509	0.614	0.343	0.113	0.26	0.258	0.301	0.293	0.0741	0.993	0.85	1.32	1.07	0.207	1.28	1.17	1.36	1.17	0.12
NCI-H596	0.676	0.791	0.765	0.791	0.315	0.573	0.589	0.62	0.641	0.334	1.29	0.988	1.17	1.06	0.551	0.865	0.9	1.07	1.05	0.458
LU99A	0.892	0.837	0.965	0.373	0.235	0.676	0.519	0.558	0.363	0.203	0.573	0.587	0.509	0.336	0.167	0.857	0.757	1.02	0.627	0.141
LC-2-ad	0.646	0.638	0.611	0.285	0.207	0.566	0.716	0.737	0.318	0.133	0.842	0.845	0.971	0.556	0.184	0.391	0.487	0.474	0.171	0.122
NCI-H1650	0.512	0.467	0.407	0.182	0.305	0.35	0.353	0.349	0.186	0.151	–	–	–	–	–	1.33	1.32	1.23	0.258	0.25
NCI-H1915	0.413	0.372	0.392	0.165	0.176	0.304	0.312	0.38	0.25	0.137	1.13	1.24	1.08	1.12	1.03	0.84	0.804	0.778	0.759	0.566
ABC-1	0.278	0.223	0.289	0.197	0.226	0.569	0.803	0.523	0.294	0.288	0.94	0.874	0.965	0.376	0.338	–	–	–	–	–
HCC-44	0.252	0.175	0.146	0.1	0.0891	–	–	–	–	–	0.702	0.746	0.812	0.698	0.248	1.02	1	1.2	1.05	0.265
HCC-78	0.738	0.896	0.743	0.51	0.543	0.388	0.542	0.464	0.348	0.267	0.51	0.498	0.509	–	0.151	0.706	0.851	0.85	–	0.657
LXF-289	0.515	0.527	0.541	0.392	0.0531	0.308	0.215	0.197	0.209	0.0629	0.914	0.987	1.09	0.936	0.542	0.934	0.995	1.12	0.922	0.469
201T	0.462	0.533	0.559	0.427	0.24	0.538	0.599	0.735	0.56	0.307	1.08	1.06	1.06	1.01	0.988	1.23	1.17	1.19	1.17	1.08
NCI-H1734	0.455	0.379	0.414	0.239	0.156	0.428	0.53	0.53	0.337	0.187	0.911	0.92	1	0.878	0.634	0.868	0.952	1.04	0.777	0.549
NCI-H1623	0.587	0.597	0.617	0.563	0.396	0.63	0.63	0.523	0.461	0.468	–	–	–	–	–	–	–	–	–	–
NCI-H2126	0.516	0.531	0.533	0.433	0.263	0.671	0.658	0.768	0.566	0.413	0.732	0.739	0.749	0.701	0.775	0.844	0.862	0.861	0.842	0.818
LOU-NH91	0.708	0.753	0.774	0.563	0.262	0.591	0.608	0.592	0.519	0.206	0.875	0.908	0.887	0.695	0.677	0.647	0.71	0.64	0.407	0.333
NCI-H1792	0.396	0.317	0.257	0.0806	0.154	1.25	0.777	0.776	0.9	0.325	0.45	0.52	0.492	0.25	0.392	0.827	0.825	0.594	0.299	0.516
NCI-H1651	0.365	0.413	0.374	0.299	0.121	0.655	0.497	0.479	0.334	0.136	1.16	0.921	1.18	1.05	0.203	1.28	1.13	1.3	0.991	0.213
A549	0.12	0.18	0.899	0.0923	0.048	–	–	–	–	–	0.628	0.551	0.769	0.434	0.0756	1.34	1.16	1.18	0.0508	0.0539

Cell Line	relative viability (Ispinesib + Phenformin; first compound 0.001 µM)	relative viability (Ispinesib + Phenformin; first compound 0.003162 µM)	relative viability (Ispinesib + Phenformin; first compound 0.01 µM)	relative viability (Ispinesib + Phenformin; first compound 0.03162 µM)	relative viability (Ispinesib + Phenformin; first compound 0.1 µM)	relative viability (Ispinesib + Dasatinib; first compound 0.001 µM)	relative viability (Ispinesib + Dasatinib; first compound 0.003162 µM)	relative viability (Ispinesib + Dasatinib; first compound 0.01 µM)	relative viability (Ispinesib + Dasatinib; first compound 0.03162 µM)	relative viability (Ispinesib + Dasatinib; first compound 0.1 µM)	relative viability (Ispinesib + Linsitinib; first compound 0.001 µM)	relative viability (Ispinesib + Linsitinib; first compound 0.003162 µM)	relative viability (Ispinesib + Linsitinib; first compound 0.01 µM)	relative viability (Ispinesib + Linsitinib; first compound 0.03162 µM)	relative viability (Ispinesib + Linsitinib; first compound 0.1 µM)	relative viability (Ispinesib + Navitoclax; first compound 0.001 µM)	relative viability (Ispinesib + Navitoclax; first compound 0.003162 µM)	relative viability (Ispinesib + Navitoclax; first compound 0.01 µM)	relative viability (Ispinesib + Navitoclax; first compound 0.03162 µM)	relative viability (Ispinesib + Navitoclax; first compound 0.1 µM)
HCC-366	0.635	0.633	0.657	0.692	0.0242	0.701	0.74	0.733	0.704	0.0265	1.13	0.595	1.04	0.719	0.167	1.16	1.02	1.31	1.2	0.27
EKVX	0.24	0.244	0.243	0.238	0.152	0.601	0.59	0.429	0.605	0.439	1.15	1.05	1.17	0.927	0.454	1.07	0.964	1.06	0.75	0.22
NCI-H1993	0.537	0.483	0.543	0.518	0.436	0.617	0.373	0.634	0.548	0.584	0.631	0.724	0.749	0.716	0.675	0.869	0.944	0.87	0.84	0.526
NCI-H2342	0.671	0.634	0.685	0.523	0.378	0.284	0.305	0.328	0.284	0.27	–	–	–	–	–	–	–	–	–	–
NCI-H1703	–	–	–	–	–	–	–	–	–	–	0.742	0.64	0.504	0.106	0.0823	1.2	0.727	0.117	0.0871	0.114
NCI-H23	0.921	0.752	0.795	0.61	0.171	0.857	1.02	0.885	0.653	0.188	0.568	0.559	0.707	0.618	0.28	0.803	0.783	1.04	0.794	0.472
HCC-827	0.424	0.432	0.457	0.332	0.257	0.36	0.318	0.317	0.292	0.263	0.955	1.01	1.01	0.959	0.892	0.996	1.06	1.03	1	1.01
IA-LM	–	–	–	–	–	–	–	–	–	–	0.493	0.567	0.996	0.549	0.158	0.969	0.751	0.44	0.0088	0.0187
NCI-H522	0.613	0.627	0.694	0.603	0.349	0.723	1.11	1.05	0.634	0.401	–	–	–	–	–	–	–	–	–	–
SW 900	0.619	0.41	0.812	0.427	0.21	0.561	0.654	0.782	0.246	0.196	–	–	–	–	–	–	–	–	–	–
NCI-H358	0.391	0.351	0.266	0.102	0.0986	0.162	0.144	0.163	0.131	0.0677	0.785	0.671	0.735	0.397	0.236	–	–	–	–	–
NCI-H1563	0.663	0.685	0.696	0.63	0.54	0.395	0.483	0.469	0.417	0.378	1.29	1.19	1.27	1.1	0.844	–	–	–	–	–
LCLC-103H	0.34	0.389	0.366	0.293	0.269	0.553	0.506	0.602	0.302	0.244	1.12	1.25	1.21	1.04	1.02	–	–	–	–	–
ChaGo-K-1	0.519	0.5	0.529	0.535	0.172	0.584	0.605	0.643	0.668	0.226	–	–	–	–	–	1.11	1.45	0.995	0.732	0.335
NCI-H2170	0.429	0.462	0.401	0.281	0.178	0.639	0.583	0.58	0.294	0.201	–	–	–	–	–	0.617	0.61	0.624	0.324	0.258
Calu-6	–	–	–	–	–	–	–	–	–	–	0.998	–	0.712	0.297	0.133	0.764	0.344	0.173	0.0922	0.12
NCI-H1299	–	–	–	–	–	–	–	–	–	–	1.06	1.12	0.81	0.941	0.375	1.02	1.08	1.08	1.01	0.52
EBC-1	–	–	–	–	–	–	–	–	–	–	0.926	1.04	1.04	0.8	0.187	0.349	0.43	0.246	0.189	0.223
NCI-H650	0.451	0.445	0.476	0.312	0.18	0.491	0.473	0.448	0.349	0.172	0.995	0.958	0.887	0.358	0.245	–	–	–	–	–

Reference: the supplement of paper PMC10307832
